From ChEMBL document CHEMBL1201861, “Genomics of Drug Sensitity in Cancer screening data, Wellcome Trust Sanger Institute”

Assays:
EW-22 = assay: cells; format: functional, cell-based, Homo sapiens; conditions: Homo sapiens, EW-22;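 also: growth inhibition of the EW-22 cell line, measured with a cell viability readout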
Description: SANGER: Inhibition of human EW-22 cell growth in a cell viability assay.

MDA-MB-157 = assay: cells; format: functional, cell-based, Homo sapiens; conditions: Homo sapiens, MDA-MB-157
Description: SANGER: Inhibition of human MDA-MB-157 cell growth in a cell viability assay.

ESS-1 = assay: cells; format: functional, cell-based, Homo sapiens; conditions: Homo sapiens, ESS-1;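 also: growth inhibition of human ESS-1 cells, read out by a cell viability assay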
Description: SANGER: Inhibition of human ESS-1 cell growth in a cell viability assay.

SK-MES-1 = assay: cells; format: functional, cell-based, Homo sapiens; conditions: Homo sapiens, SK-MES-1;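 also: growth inhibition of human SK-MES-1 cells, read out with a cell viability assay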
Description: SANGER: Inhibition of human SK-MES-1 cell growth in a cell viability assay.

SW1710 = assay: cells; format: functional, cell-based, Homo sapiens; conditions: Homo sapiens, SW1710;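 also: growth inhibition of SW1710 cells, determined with a cell viability assay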
Description: SANGER: Inhibition of human SW1710 cell growth in a cell viability assay.

G-402 = assay: cells; format: functional, cell-based, Homo sapiens; conditions: Homo sapiens, G-402
Description: SANGER: Inhibition of human G-402 cell growth in a cell viability assay.

CAL-12T = assay: cells; format: functional, cell-based, Homo sapiens; conditions: Homo sapiens, CAL-12T;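 also: growth inhibition of human CAL-12T cells, read out with a cell viability assay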
Description: SANGER: Inhibition of human CAL-12T cell growth in a cell viability assay.

PANC-03-27 = assay: cells; format: functional, cell-based, Homo sapiens; conditions: Homo sapiens, PANC-03-27
Description: SANGER: Inhibition of human PANC-03-27 cell growth in a cell viability assay.

CFPAC-1 = assay: cells; format: functional, cell-based, Homo sapiens; conditions: Homo sapiens, CFPAC-1;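 also: cell viability readout used to gauge suppression of CFPAC-1 cell proliferation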
Description: SANGER: Inhibition of human CFPAC-1 cell growth in a cell viability assay.

RVH-421 = assay: cells; format: functional, cell-based, Homo sapiens; conditions: Homo sapiens, RVH-421
Description: SANGER: Inhibition of human RVH-421 cell growth in a cell viability assay.

T47D = assay: cells; format: functional, cell-based, Homo sapiens; conditions: Homo sapiens, T47D;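 also: growth inhibition of human T47D cells, measured with a cell viability assay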
Description: SANGER: Inhibition of human T47D cell growth in a cell viability assay.

Capan-2 = assay: cells; format: functional, cell-based, Homo sapiens; conditions: Homo sapiens, Capan-2;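 also: Capan-2 cell growth inhibition, read out with a viability assay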
Description: SANGER: Inhibition of human Capan-2 cell growth in a cell viability assay.

COLO-792 = assay: cells; format: functional, cell-based, Homo sapiens; conditions: Homo sapiens, COLO-792
Description: SANGER: Inhibition of human COLO-792 cell growth in a cell viability assay.

SW756 = assay: cells; format: functional, cell-based, Homo sapiens; conditions: Homo sapiens, SW756;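 also: growth inhibition of human SW756 cells, read out with a cell viability assay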
Description: SANGER: Inhibition of human SW756 cell growth in a cell viability assay.

LCLC-97TM1 = assay: cells; format: functional, cell-based, Homo sapiens; conditions: Homo sapiens, LCLC-97TM1;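 also: cell viability assay measuring growth inhibition of human LCLC-97TM1 cells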
Description: SANGER: Inhibition of human LCLC-97TM1 cell growth in a cell viability assay.

SW1463 = assay: cells; format: functional, cell-based, Homo sapiens; conditions: Homo sapiens, SW1463;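 also: growth inhibition of SW1463 cells, determined with a cell viability assay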
Description: SANGER: Inhibition of human SW1463 cell growth in a cell viability assay.

HCC1569 = assay: cells; format: functional, cell-based, Homo sapiens; conditions: Homo sapiens, HCC1569;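 also: growth inhibition of human HCC1569 cells, read out with a cell viability assay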
Description: SANGER: Inhibition of human HCC1569 cell growth in a cell viability assay.

NCI-H520 = assay: cells; format: functional, cell-based, Homo sapiens; conditions: Homo sapiens, NCI-H520;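 also: growth inhibition of NCI-H520 cells, measured by a cell viability assay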
Description: SANGER: Inhibition of human NCI-H520 cell growth in a cell viability assay.

T-24 = assay: cells; format: functional, cell-based, Homo sapiens; conditions: Homo sapiens, T-24;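 also: growth inhibition of T-24 cells, read out with a cell viability assay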
Description: SANGER: Inhibition of human T-24 cell growth in a cell viability assay.

SW1990 = assay: cells; format: functional, cell-based, Homo sapiens; conditions: Homo sapiens, SW1990
Description: SANGER: Inhibition of human SW1990 cell growth in a cell viability assay.

EFO-27 = assay: cells; format: functional, cell-based, Homo sapiens; conditions: Homo sapiens, EFO-27;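 also: growth inhibition of EFO-27 cells, read out with a cell viability assay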
Description: SANGER: Inhibition of human EFO-27 cell growth in a cell viability assay.

KYSE-410 = assay: cells; format: functional, cell-based, Homo sapiens; conditions: Homo sapiens, KYSE-410;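 also: growth inhibition of KYSE-410 cells, measured through a cell viability readout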
Description: SANGER: Inhibition of human KYSE-410 cell growth in a cell viability assay.

5637 = assay: cells; format: functional, cell-based, Homo sapiens; conditions: Homo sapiens
Description: SANGER: Inhibition of human 5637 cell growth in a cell viability assay.

OVCAR-5 = assay: cells; format: functional, cell-based, Homo sapiens; conditions: Homo sapiens, OVCAR-5;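 also: growth inhibition of human OVCAR-5 cells, read out with a cell viability assay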
Description: SANGER: Inhibition of human OVCAR-5 cell growth in a cell viability assay.

HuO-3N1 = assay: cells; format: functional, cell-based, Homo sapiens; conditions: Homo sapiens, HuO-3N1;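 also: cell viability readout used to measure how strongly compounds suppress proliferation of human HuO-3N1 cells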
Description: SANGER: Inhibition of human HuO-3N1 cell growth in a cell viability assay.

D-566MG = assay: cells; format: functional, cell-based, Homo sapiens; conditions: Homo sapiens, D-566MG
SN12C = assay: cells; format: functional, cell-based, Homo sapiens; conditions: Homo sapiens, SN12C;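 also: growth inhibition of human SN12C cells, measured by a cell viability assay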
Description: SANGER: Inhibition of human SN12C cell growth in a cell viability assay.

UO-31 = assay: cells; format: functional, cell-based, Homo sapiens; conditions: Homo sapiens, UO-31
Description: SANGER: Inhibition of human U031 cell growth in a cell viability assay.

HCC70 = assay: cells; format: functional, cell-based, Homo sapiens; conditions: Homo sapiens, HCC70;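 also: cell viability assay measuring how strongly the compound suppresses proliferation of HCC70 cells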
Description: SANGER: Inhibition of human HCC70 cell growth in a cell viability assay.

CAL-54 = assay: cells; format: functional, cell-based, Homo sapiens; conditions: Homo sapiens, CAL-54;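 also: growth inhibition of CAL-54 cells, read out by a viability measurement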
Description: SANGER: Inhibition of human CAL-54 cell growth in a cell viability assay.

IGROV-1 = assay: cells; format: functional, cell-based, Homo sapiens; conditions: Homo sapiens, IGROV-1;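 also: reduction of IGROV-1 cell growth, read out with a viability assay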
Description: SANGER: Inhibition of human IGROV-1 cell growth in a cell viability assay.

NCI-H28 = assay: cells; format: functional, cell-based, Homo sapiens; conditions: Homo sapiens, NCI-H28;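 also: growth inhibition of human NCI-H28 cells, read out as cell viability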
Description: SANGER: Inhibition of human NCI-H28 cell growth in a cell viability assay.

HuP-T4 = assay: cells; format: functional, cell-based, Homo sapiens; conditions: Homo sapiens, HuP-T4;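 also: cell viability assay measuring how much HuP-T4 cell growth is inhibited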
Description: SANGER: Inhibition of human HuP-T4 cell growth in a cell viability assay.

MHH-CALL-2 = assay: cells; format: functional, cell-based, Homo sapiens; conditions: Homo sapiens, MHH-CALL-2;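 also: growth inhibition of the cell line, read out in a cell viability assay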
Description: SANGER: Inhibition of human MHH-CALL-2 cell growth in a cell viability assay.

CA46 = assay: cells; format: functional, cell-based, Homo sapiens; conditions: Homo sapiens, CA46;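 also: growth inhibition of human CA46 cells, read out by a cell viability assay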
Description: SANGER: Inhibition of human CA46 cell growth in a cell viability assay.

NCI-H2141 = assay: cells; format: functional, cell-based, Homo sapiens; conditions: Homo sapiens, NCI-H2141;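 also: growth inhibition of human NCI-H2141 cells, read out with a cell viability assay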
Description: SANGER: Inhibition of human NCI-H2141 cell growth in a cell viability assay.

P31-FUJ = assay: cells; format: functional, cell-based, Homo sapiens; conditions: Homo sapiens, P31-FUJ;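 also: growth inhibition of P31-FUJ cells, read out with a viability assay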
Description: SANGER: Inhibition of human P31-FUJ cell growth in a cell viability assay.

SNU-C1 = assay: cells; format: functional, cell-based, Homo sapiens; conditions: Homo sapiens, SNU-C1;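 also: growth inhibition of SNU-C1 human cells, read out by a cell viability assay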
Description: SANGER: Inhibition of human SNU-C1 cell growth in a cell viability assay.

NCI-H345 = assay: cells; format: functional, cell-based, Homo sapiens; conditions: Homo sapiens, NCI-H345;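 also: growth inhibition of NCI-H345 cells measured with a cell viability assay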
Description: SANGER: Inhibition of human NCI-H345 cell growth in a cell viability assay.

NCI-H889 = assay: cells; format: functional, cell-based, Homo sapiens; conditions: Homo sapiens, NCI-H889;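 also: cell growth inhibition of the cell line, read out with a viability assay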
Description: SANGER: Inhibition of human NCI-H889 cell growth in a cell viability assay.

IST-SL2 = assay: cells; format: functional, cell-based, Homo sapiens; conditions: Homo sapiens, IST-SL2;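 also: growth inhibition of human IST-SL2 cells, read out by a cell viability assay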
Description: SANGER: Inhibition of human IST-SL2 cell growth in a cell viability assay.

IM-9 = assay: SANGER: Inhibition of human IM-9 cell growth in a cell viability assay.; format: functional, cell-based; conditions: Homo sapiens, IM-9
GDM-1 = assay: cells; format: functional, cell-based, Homo sapiens; conditions: Homo sapiens, GDM-1;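 also: cell viability readout used to measure growth inhibition of human GDM-1 cells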
Description: SANGER: Inhibition of human GDM-1 cell growth in a cell viability assay.

NCI-H1882 = assay: cells; format: functional, cell-based, Homo sapiens; conditions: Homo sapiens, NCI-H1882;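 also: growth inhibition of the cell line, determined with a viability assay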
Description: SANGER: Inhibition of human NCI-H1882 cell growth in a cell viability assay.

NCI-H1417 = assay: cells; format: functional, cell-based, Homo sapiens; conditions: Homo sapiens, NCI-H1417;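 also: human NCI-H1417 cells, growth inhibition determined with a cell viability readout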
Description: SANGER: Inhibition of human NCI-H1417 cell growth in a cell viability assay.

MRK-nu-1 = assay: cells; format: functional, cell-based, Homo sapiens; conditions: Homo sapiens, MRK-nu-1;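 also: cell viability assay measuring growth suppression of human MRK-nu-1 cells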
Description: SANGER: Inhibition of human MRK-nu-1 cell growth in a cell viability assay.

MOLT-13 = assay: cells; format: functional, cell-based, Homo sapiens; conditions: Homo sapiens, MOLT-13;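 also: IC50 for suppression of MOLT-13 cell growth, read out with a cell viability assay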
Description: SANGER: Inhibition of human MOLT-13 cell growth in a cell viability assay.

VM-CUB-1 = assay: cells; format: functional, cell-based, Homo sapiens; conditions: Homo sapiens, VM-CUB-1;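 also: cell viability assay measuring growth inhibition of the human VM-CUB-1 cell line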
Description: SANGER: Inhibition of human VM-CUB-1 cell growth in a cell viability assay.

| Structure (SMILES) | IC50 (EW-22) [µM] | IC50 (ESS-1) [µM] | IC50 (SK-MES-1) [µM] | IC50 (SW1710) [µM] | IC50 (G-402) [µM] | IC50 (CFPAC-1) [µM] | IC50 (T47D) [µM] | IC50 (COLO-792) [µM] | IC50 (SW756) [µM] | IC50 (LCLC-97TM1) [µM] | IC50 (SW1463) [µM] | IC50 (EFO-27) [µM] | IC50 (KYSE-410) [µM] | IC50 5637 [µM] | IC50 (OVCAR-5) [µM] | IC50 (HuO-3N1) [µM] | IC50 (D-566MG) [µM] | IC50 (HCC70) [µM] | IC50 (CAL-54) [µM] | IC50 (IGROV-1) [µM] | further results |
| --- | --- | --- | --- | --- | --- | --- | --- | --- | --- | --- | --- | --- | --- | --- | --- | --- | --- | --- | --- | --- | --- |
| CC(C)c1ccccc1Cc1cc(C(=O)Nc2ccc(S(=O)(=O)c3ccccc3C(C)(C)C)cc2)c(O)c(O)c1O | 0.28 | 0.141 | 1.04 | 0.388 | 0.193 | 0.522 | 0.691 | 0.247 | 0.112 | 0.917 | 64.8 | 0.117 | 0.877 | 0.552 | 0.576 | 2.03 | 0.116 | 0.858 | 0.161 | 0.454 | IC50 (MDA-MB-157): 0.841 µM; IC50 (CAL-12T): 1.12 µM; IC50 (PANC-03-27): 0.474 µM; IC50 (RVH-421): 0.253 µM; IC50 (Capan-2): 6.04 µM; IC50 (HCC1569): 4.88 µM; IC50 (NCI-H520): 0.606 µM; IC50 (T-24): 0.295 µM; IC50 (SW1990): 1.67 µM; IC50 (SN12C): 1.11 µM; IC50 (UO-31): 0.184 µM; IC50 (NCI-H28): 0.447 µM; IC50 (HuP-T4): 0.543 µM |
| COc1cc2ncn(-c3cc(OCc4ccccc4S(C)(=O)=O)c(C#N)s3)c2cc1OC [GSK-319347A] | > 5 | – | – | – | – | – | – | – | – | – | – | – | – | – | – | – | – | – | – | – | IC50 (MHH-CALL-2): > 5 µM; IC50 (CA46): > 5 µM; IC50 (NCI-H2141): > 5 µM; IC50 (P31-FUJ): > 5 µM; IC50 (SNU-C1): > 5 µM; IC50 (NCI-H345): > 5 µM; IC50 (NCI-H889): > 5 µM; IC50 (IST-SL2): > 5 µM; IC50 (IM-9): > 5 µM; IC50 (GDM-1): > 5 µM; IC50 (NCI-H1882): > 5 µM; IC50 (NCI-H1417): > 5 µM; IC50 (MRK-nu-1): > 5 µM |
| Cn1cnc2c(F)c(Nc3ccc(Br)cc3Cl)c(C(=O)NOCCO)cc21 [SELUMETINIB] | > 4 | > 4 | > 4 | > 4 | > 4 | > 4 | > 4 | 1.19 | > 4 | 1.03 | > 4 | 3.33 | > 4 | > 4 | > 4 | > 4 | > 4 | > 4 | 1.49 | > 4 | IC50 (MDA-MB-157): > 4 µM; IC50 (MOLT-13): > 4 µM; IC50 (CAL-12T): > 4 µM; IC50 (PANC-03-27): > 4 µM; IC50 (RVH-421): 0.279 µM; IC50 (Capan-2): > 4 µM; IC50 (HCC1569): > 4 µM; IC50 (NCI-H520): > 4 µM; IC50 (T-24): > 4 µM; IC50 (SW1990): > 4 µM; IC50 (SN12C): 3.96 µM; IC50 (VM-CUB-1): 3.97 µM; IC50 (NCI-H28): > 4 µM; IC50 (HuP-T4): 0.195 µM |
| CN(C)C(=N)NC(=N)N [METFORMIN] | – | > 20000 | > 20000 | > 20000 | 11300 | > 20000 | 19900 | 7510 | > 20000 | 3170 | > 20000 | > 20000 | > 20000 | 5300 | > 20000 | 7800 | 10800 | > 20000 | 3360 | > 20000 | IC50 (MOLT-13): 556 µM; IC50 (UO-31): > 20000 µM; IC50 (NCI-H28): 12000 µM |
